Numbers after ± are expanded uncertainties.
Key:
[1] = wn = mass fraction of the nth substance listed; settings: Fluid (supercritical or subcritical phases), Other PVT measurement
[2] = Crystal; visual observation

O=C(OCCC(F)(F)C(F)(F)C(F)(F)C(F)(F)C(F)(F)C(F)(F)F)c1ccccc1-c1ccccc1C(=O)OCCC(F)(F)C(F)(F)C(F)(F)C(F)(F)C(F)(F)C(F)(F)F + O=C=O
mass density ([1]; 294.65 K, 5000 kPa, w1 = 0.652): 892 ± 27 kg/m3 | mass density ([1]; 294.65 K, 5620 kPa, w1 = 0.36): 681 ± 24 kg/m3 | mass density ([1]; 294.85 K, 5930 kPa, w1 = 0.063): 606 ± 19 kg/m3 | mass density ([1]; 295.15 K, 6040 kPa, w1 = 0.13): 668 ± 20 kg/m3 | mass density ([1]; 295.55 K, 6170 kPa, w1 = 0.021): 663 ± 20 kg/m3 | mass density ([1]; 297.35 K, 6380 kPa, w1 = 0.13): 688 ± 21 kg/m3 | mass density ([1]; 297.45 K, 6110 kPa, w1 = 0.36): 690 ± 23 kg/m3 | mass density ([1]; 297.75 K, 5170 kPa, w1 = 0.652): 896 ± 27 kg/m3 | mass density ([1]; 298.65 K, 5930 kPa, w1 = 0.515): 968 ± 29 kg/m3 | mass density ([1]; 298.75 K, 6310 kPa, w1 = 0.288): 798 ± 26 kg/m3 | mass density ([1]; 298.85 K, 6590 kPa, w1 = 0.063): 640 ± 20 kg/m3 | mass density ([1]; 299.15 K, 6690 kPa, w1 = 0.021): 643 ± 19 kg/m3 | mass density ([1]; 303.05 K, 7110 kPa, w1 = 0.13): 662 ± 20 kg/m3 | mass density ([1]; 303.35 K, 7210 kPa, w1 = 0.063): 617 ± 19 kg/m3 | mass density ([1]; 303.35 K, 7380 kPa, w1 = 0.021): 601 ± 18 kg/m3 | mass density ([1]; 304.65 K, 7210 kPa, w1 = 0.288): 781 ± 23 kg/m3 | mass density ([1]; 307.95 K, 7210 kPa, w1 = 0.515): 949 ± 28 kg/m3 | mass density ([1]; 309.35 K, 8200 kPa, w1 = 0.021): 558 ± 17 kg/m3 | mass density ([1]; 309.75 K, 7970 kPa, w1 = 0.36): 739 ± 22 kg/m3 | mass density ([1]; 309.95 K, 8030 kPa, w1 = 0.063): 579 ± 17 kg/m3 | mass density ([1]; 309.95 K, 8070 kPa, w1 = 0.288): 771 ± 22 kg/m3 | mass density ([1]; 311.95 K, 8580 kPa, w1 = 0.13): 630 ± 19 kg/m3 | mass density ([1]; 314.35 K, 7140 kPa, w1 = 0.652): 966 ± 29 kg/m3 | mass density ([1]; 317.85 K, 8860 kPa, w1 = 0.515): 929 ± 28 kg/m3 | mass density ([1]; 318.85 K, 9510 kPa, w1 = 0.288): 750 ± 23 kg/m3 | mass density ([1]; 320.05 K, 10210 kPa, w1 = 0.36): 724 ± 22 kg/m3 | mass density ([1]; 321.05 K, 10870 kPa, w1 = 0.202): 594 ± 18 kg/m3 | mass density ([1]; 323.85 K, 11580 kPa, w1 = 0.13): 613 ± 18 kg/m3 | mass density ([1]; 327.05 K, 11550 kPa, w1 = 0.021): 518 ± 16 kg/m3 | mass density ([1]; 330.25 K, 13000 kPa, w1 = 0.063): 561 ± 17 kg/m3 | mass density ([1]; 331.85 K, 12530 kPa, w1 = 0.36): 712 ± 21 kg/m3 | mass density ([1]; 332.75 K, 12890 kPa, w1 = 0.288): 728 ± 22 kg/m3 | mass density ([1]; 333.95 K, 9800 kPa, w1 = 0.652): 940 ± 28 kg/m3 | mass density ([1]; 334.55 K, 12170 kPa, w1 = 0.515): 899 ± 27 kg/m3 | mass density ([1]; 336.45 K, 14580 kPa, w1 = 0.202): 578 ± 17 kg/m3 | mass density ([1]; 341.45 K, 15270 kPa, w1 = 0.36): 701 ± 21 kg/m3 | mass density ([1]; 346.35 K, 16510 kPa, w1 = 0.13): 581 ± 17 kg/m3 | mass density ([1]; 349.25 K, 15310 kPa, w1 = 0.021): 490 ± 15 kg/m3 | mass density ([1]; 349.95 K, 17000 kPa, w1 = 0.063): 536 ± 16 kg/m3 | mass density ([1]; 350.65 K, 15520 kPa, w1 = 0.515): 870 ± 26 kg/m3 | mass density ([1]; 352.75 K, 17100 kPa, w1 = 0.288): 697 ± 21 kg/m3 | mass density ([1]; 353.75 K, 12800 kPa, w1 = 0.652): 918 ± 28 kg/m3 | mass density ([1]; 354.55 K, 18170 kPa, w1 = 0.202): 565 ± 17 kg/m3 | mass density ([1]; 354.95 K, 17650 kPa, w1 = 0.36): 681 ± 20 kg/m3 | mass density ([1]; 367.35 K, 20380 kPa, w1 = 0.13): 553 ± 17 kg/m3 | mass density ([1]; 368.25 K, 17510 kPa, w1 = 0.021): 458 ± 14 kg/m3 | mass density ([1]; 368.45 K, 18830 kPa, w1 = 0.515): 840 ± 25 kg/m3 | mass density ([1]; 369.05 K, 20170 kPa, w1 = 0.288): 675 ± 27 kg/m3 | mass density ([1]; 369.25 K, 19820 kPa, w1 = 0.36): 659 ± 20 kg/m3 | mass density ([1]; 370.45 K, 15210 kPa, w1 = 0.652): 900 ± 27 kg/m3 | mass density ([1]; 371.85 K, 20310 kPa, w1 = 0.063): 503 ± 15 kg/m3 | mass density ([1]; 371.85 K, 21240 kPa, w1 = 0.202): 542 ± 16 kg/m3

CCCCCCCCOC(=O)c1ccccc1-c1ccccc1C(=O)OCCCCCCCC [dioctyl [1,1'-biphenyl]-2,2'-dicarboxylate] + O=C=O
mass density ([1]; 294.15 K, 29730 kPa, w1 = 0.55): 926 ± 28 kg/m3 | mass density ([1]; 294.75 K, 7070 kPa, w1 = 0.019): 786 ± 24 kg/m3 | mass density ([1]; 294.95 K, 61930 kPa, w1 = 0.374): 942 ± 28 kg/m3 | mass density ([1]; 296.95 K, 55900 kPa, w1 = 0.374): 931 ± 28 kg/m3 | mass density ([1]; 297.05 K, 11550 kPa, w1 = 0.628): 870 ± 26 kg/m3 | mass density ([1]; 298.55 K, 27860 kPa, w1 = 0.55): 917 ± 28 kg/m3 | mass density ([1]; 299.45 K, 9000 kPa, w1 = 0.019): 784 ± 24 kg/m3 | mass density ([1]; 301.15 K, 12660 kPa, w1 = 0.628): 862 ± 26 kg/m3 | mass density ([1]; 303.75 K, 60200 kPa, w1 = 0.274): 984 ± 30 kg/m3 | mass density ([1]; 308.05 K, 69130 kPa, w1 = 0.094): 953 ± 29 kg/m3 | mass density ([1]; 311.55 K, 50510 kPa, w1 = 0.274): 965 ± 29 kg/m3 | mass density ([1]; 312.35 K, 42450 kPa, w1 = 0.374): 882 ± 26 kg/m3 | mass density ([1]; 313.45 K, 26760 kPa, w1 = 0.55): 896 ± 27 kg/m3 | mass density ([1]; 316.95 K, 53240 kPa, w1 = 0.094): 911 ± 27 kg/m3 | mass density ([1]; 317.25 K, 14760 kPa, w1 = 0.019): 750 ± 23 kg/m3 | mass density ([1]; 318.45 K, 16170 kPa, w1 = 0.628): 848 ± 25 kg/m3 | mass density ([1]; 319.45 K, 53170 kPa, w1 = 0.171): 1122 ± 34 kg/m3 | mass density ([1]; 320.25 K, 44070 kPa, w1 = 0.069): 922 ± 28 kg/m3 | mass density ([1]; 322.45 K, 27040 kPa, w1 = 0.55): 895 ± 27 kg/m3 | mass density ([1]; 322.55 K, 49720 kPa, w1 = 0.206): 1098 ± 33 kg/m3 | mass density ([1]; 323.45 K, 44620 kPa, w1 = 0.274): 934 ± 28 kg/m3 | mass density ([1]; 324.25 K, 48000 kPa, w1 = 0.094): 883 ± 27 kg/m3 | mass density ([1]; 327.05 K, 41620 kPa, w1 = 0.069): 899 ± 27 kg/m3 | mass density ([1]; 329.65 K, 48240 kPa, w1 = 0.171): 1085 ± 33 kg/m3 | mass density ([1]; 330.85 K, 28520 kPa, w1 = 0.55): 882 ± 26 kg/m3 | mass density ([1]; 331.25 K, 47070 kPa, w1 = 0.206): 1071 ± 32 kg/m3 | mass density ([1]; 334.65 K, 19620 kPa, w1 = 0.628): 838 ± 25 kg/m3 | mass density ([1]; 334.65 K, 39730 kPa, w1 = 0.374): 852 ± 26 kg/m3 | mass density ([1]; 334.85 K, 19620 kPa, w1 = 0.019): 716 ± 21 kg/m3 | mass density ([1]; 337.75 K, 42720 kPa, w1 = 0.274): 903 ± 27 kg/m3 | mass density ([1]; 339.35 K, 44380 kPa, w1 = 0.094): 845 ± 26 kg/m3 | mass density ([1]; 340.95 K, 45450 kPa, w1 = 0.206): 1040 ± 31 kg/m3 | mass density ([1]; 340.95 K, 46170 kPa, w1 = 0.171): 1048 ± 32 kg/m3 | mass density ([1]; 342.45 K, 40210 kPa, w1 = 0.374): 857 ± 26 kg/m3 | mass density ([1]; 342.75 K, 39580 kPa, w1 = 0.069): 852 ± 26 kg/m3 | mass density ([1]; 351.75 K, 44960 kPa, w1 = 0.206): 1005 ± 30 kg/m3 | mass density ([1]; 352.95 K, 42930 kPa, w1 = 0.274): 879 ± 27 kg/m3 | mass density ([1]; 353.55 K, 23520 kPa, w1 = 0.628): 828 ± 25 kg/m3 | mass density ([1]; 353.85 K, 32040 kPa, w1 = 0.55): 866 ± 26 kg/m3 | mass density ([1]; 353.95 K, 45690 kPa, w1 = 0.171): 1013 ± 30 kg/m3 | mass density ([1]; 354.35 K, 43820 kPa, w1 = 0.094): 811 ± 25 kg/m3 | mass density ([1]; 355.95 K, 41140 kPa, w1 = 0.374): 830 ± 25 kg/m3 | mass density ([1]; 356.55 K, 40450 kPa, w1 = 0.069): 821 ± 25 kg/m3 | mass density ([1]; 359.75 K, 25240 kPa, w1 = 0.019): 671 ± 20 kg/m3 | mass density ([1]; 359.75 K, 45100 kPa, w1 = 0.206): 994 ± 30 kg/m3 | mass density ([1]; 367.25 K, 43820 kPa, w1 = 0.274): 849 ± 26 kg/m3 | mass density ([1]; 369.25 K, 46200 kPa, w1 = 0.171): 970 ± 29 kg/m3 | mass density ([1]; 369.85 K, 45410 kPa, w1 = 0.206): 955 ± 29 kg/m3 | mass density ([1]; 370.25 K, 44510 kPa, w1 = 0.094): 779 ± 24 kg/m3 | mass density ([1]; 371.05 K, 26730 kPa, w1 = 0.628): 821 ± 25 kg/m3 | mass density ([1]; 371.45 K, 42590 kPa, w1 = 0.374): 816 ± 25 kg/m3 | mass density ([1]; 371.55 K, 41450 kPa, w1 = 0.069): 788 ± 24 kg/m3 | mass density ([1]; 371.85 K, 34480 kPa, w1 = 0.55): 851 ± 26 kg/m3 | mass density ([1]; 375.95 K, 27720 kPa, w1 = 0.019): 638 ± 19 kg/m3

O=C(OCCC(F)(F)C(F)(F)C(F)(F)C(F)(F)C(F)(F)C(F)(F)F)c1cccc(-c2cccc(C(=O)OCCC(F)(F)C(F)(F)C(F)(F)C(F)(F)C(F)(F)C(F)(F)F)c2)c1
Normal melting temperature [2]: 72.00 ± 1 °C

CCCCCCCCOC(=O)c1cccc(-c2cccc(C(=O)OCCCCCCCC)c2)c1 [dioctyl [1,1'-biphenyl]-3,3'-dicarboxylate]
Normal melting temperature [2]: 29.00 ± 1 °C

From the NIST ThermoML archive (doi:10.1016/j.fluid.2005.09.019)
